These results are taken from ChEMBL document CHEMBL3352350, “Syntheses and structure-activity relationships in cytotoxicities of 13-substituted quaternary coptisine derivatives” (Eur J Med Chem, 2014).

A word on the IC50: it is the concentration needed to halve the response being measured.

A short description of experiment [1]: Cytotoxicity against human HCT8 cells assessed as growth inhibition rate after 96 hrs by MTT assay. The note with it: HCT-8, 96 h. It is filed as functional, cell-based.
For experiment [2], the system named is A549. Briefly: Cytotoxicity against human A549 cells assessed as growth inhibition rate at 0.1 to 100 umol/L after 96 hrs by MTT assay. It is filed as functional.
Experiment [3] is described as follows: Cytotoxicity against human Bel7402 cells assessed as growth inhibition rate after 96 hrs by MTT assay. It is filed as functional, cell-based. Particulars: Bel-7402, 96 h.
Experiment [4] concerns A549. Briefly: Cytotoxicity against human A549 cells assessed as growth inhibition rate after 96 hrs by MTT assay. It is filed as functional, cell-based. The note with it: A549, 96 h.
A short description of experiment [5]: Cytotoxicity against human C33A cells assessed as growth inhibition rate at 0.1 to 100 umol/L after 96 hrs by MTT assay. It is filed as functional, C-33-A. On the technique in general: Tetrazolium dyes change colour on reduction, which living cells bring about.
Experiment [6] can be described thus: Cytotoxicity against human C33A cells assessed as growth inhibition rate after 96 hrs by MTT assay. Type of experiment: functional, cell-based. The note with it: C-33-A.
A short description of experiment [7]: Cytotoxicity against human HCT8 cells assessed as growth inhibition rate at 0.1 to 100 umol/L after 96 hrs by MTT assay. It is filed as functional, HCT-8.
Experiment [8] in a line: Cytotoxicity against human Bel7402 cells assessed as growth inhibition rate at 0.1 to 100 umol/L after 96 hrs by MTT assay. Type of experiment: functional, Bel-7402.
Experiment [9] in a line: Cytotoxicity against human BGC823 cells assessed as growth inhibition rate after 96 hrs by MTT assay. The note with it: BGC-823, 96 h. It is filed as functional, cell-based.

For `C1=C2c3cc4c(cc3CCN2Cc2c1ccc1c2OCO1)OCO4`, the IC50 in [1], in experiment [3], in experiment [4] and in experiment [6] was above 5 µg/mL throughout. For the same compound, the “growth inhibition (GI)” value is given as 32.09% in experiment [2], -10.65% in [5], 30.88% in experiment [7] and 27.27% in [8].
In the case of `Cc1c2[n+](cc3c4c(ccc13)OCO4)CCc1cc3c(cc1-2)OCO3.[Cl-]`, the IC50 in experiment [1], in experiment [3], in [4] and in experiment [6] was above 5 µg/mL each time. In addition, the “growth inhibition (GI)” value in [2] is 42.83%; in [5] it was -7.22%; in experiment [7] it was 35.62%; in experiment [8], 2.43%.
Regarding `CCc1c2[n+](cc3c4c(ccc13)OCO4)CCc1cc3c(cc1-2)OCO3.[Cl-]`, the IC50 in [1], in experiment [3], in experiment [4] and in experiment [6] was above 5 µg/mL throughout. In addition, the “growth inhibition (GI)” value is 41.74% in [2], -7.45% in experiment [5], 39.7% in experiment [7] and 10.19% in experiment [8].
Regarding `CCCc1c2[n+](cc3c4c(ccc13)OCO4)CCc1cc3c(cc1-2)OCO3.[Cl-]`, the IC50 in experiment [1], in experiment [3], in experiment [4] and in experiment [6] was above 5 µg/mL each time. Also, the “growth inhibition (GI)” value in [2] is on record as 45.12%; in experiment [5] it was -7.69%; in [7], 40.68%; in experiment [8], -23.7%.
Consider `CCCCc1c2[n+](cc3c4c(ccc13)OCO4)CCc1cc3c(cc1-2)OCO3.[Cl-]`, for which the half-inhibitory concentration (IC50) in experiment [1], in [3], in [4] and in [6] was above 5 µg/mL throughout. The “growth inhibition (GI)” value in [2] is 32.79%; in experiment [5], -6.66%; in experiment [7], 32.57%; in experiment [8], 21.81%.
As to `CCCCCc1c2[n+](cc3c4c(ccc13)OCO4)CCc1cc3c(cc1-2)OCO3.[Cl-]`, the IC50 in experiment [1] was 6.93 µM; in experiment [3], above 5 µg/mL; in [4], above 5 µg/mL; in [6] it was above 5 µg/mL. Further, the “growth inhibition (GI)” value was 49.34% in [2], -5.79% in [5], 59.02% in experiment [7] and 5.82% in [8].
Take `CC(C)CCc1c2[n+](cc3c4c(ccc13)OCO4)CCc1cc3c(cc1-2)OCO3.[Cl-]`: the half-maximal inhibitory concentration (IC50) in experiment [1], in experiment [3], in experiment [4] and in [6] was above 5 µg/mL in each case. Further, the “growth inhibition (GI)” value in experiment [2] is on record as 38.49%; in experiment [5], 48.99%; in experiment [7] it was 30.75%; in experiment [8] it was -2.18%.
Take `CCCCCCc1c2[n+](cc3c4c(ccc13)OCO4)CCc1cc3c(cc1-2)OCO3.[Cl-]`: the concentration for half-maximal inhibition (IC50) in experiment [1] was 6.55 µM; in experiment [3], 3.05 µM; in experiment [4] it was 5.57 µM; in [6] it was above 5 µg/mL. Further, the “growth inhibition (GI)” value in [2] was 60.71%; in experiment [5], 52.51%; in experiment [7], 59.24%; in experiment [8], 74.26%.
With `CCCCCCCc1c2[n+](cc3c4c(ccc13)OCO4)CCc1cc3c(cc1-2)OCO3.[Cl-]`, the IC50 in experiment [1] is 5.86 µM; in experiment [3] it was 1.92 µM; in [4] it was 2.58 µM; in experiment [6], 6.94 µM. The “growth inhibition (GI)” value turned out to be 71.89% in experiment [2], 63.75% in experiment [5], 61.02% in [7] and 86.6% in [8].
For `CCCCCCCCc1c2[n+](cc3c4c(ccc13)OCO4)CCc1cc3c(cc1-2)OCO3.[Cl-]`, the half-maximal inhibitory concentration (IC50) was 3.33 µM in [1], 1.43 µM in experiment [3], 1.88 µM in [4] and 7.31 µM in experiment [6]. Also, the “growth inhibition (GI)” value is given as 73.99% in [2], 63.28% in [5], 65.54% in experiment [7] and 89.32% in experiment [8].
With `CCCCCCCCCc1c2[n+](cc3c4c(ccc13)OCO4)CCc1cc3c(cc1-2)OCO3.[Cl-]`, the IC50 in experiment [1], in experiment [3], in [4] and in experiment [6] was above 5 µg/mL throughout. Also, the “growth inhibition (GI)” value in experiment [2] is 49.29%; in [5], -16.26%; in [7] it was 43.24%; in experiment [8], 43.46%.
Turning to `CCCCCCCCCCc1c2[n+](cc3c4c(ccc13)OCO4)CCc1cc3c(cc1-2)OCO3.[Cl-]`, the IC50 in [1] was determined as 1.81 µM; in experiment [3] it was 1.43 µM; in experiment [4], 1.83 µM; in experiment [6] it was 4.31 µM. The “growth inhibition (GI)” value worked out at 75.26% in experiment [2], 61.31% in [5], 71.93% in experiment [7] and 89.98% in experiment [8].
For `CCCCCCCCCCCCc1c2[n+](cc3c4c(ccc13)OCO4)CCc1cc3c(cc1-2)OCO3.[Cl-]`, the half-maximal inhibitory concentration (IC50) was found to be 1.03 µM in experiment [1], 1.32 µM in [3], 0.59 µM in [4] and 1.43 µM in [6]. In addition, the “growth inhibition (GI)” value is given as 94.03% in [2], 84.73% in experiment [5], 91.28% in experiment [7] and 87.63% in experiment [8].
As to `N#Cc1ccc(Cc2c3[n+](cc4c5c(ccc24)OCO5)CCc2cc4c(cc2-3)OCO4)cc1.[Cl-]`, the IC50 in experiment [1], in experiment [3], in [4] and in experiment [9] was above 10 µM each time. Also, the “growth inhibition (GI)” value in experiment [2] amounted to 2%; in [7] it was 3.69%; in experiment [8], 4.03%.
`O=[N+]([O-])c1ccc(Cc2c3[n+](cc4c5c(ccc24)OCO5)CCc2cc4c(cc2-3)OCO4)cc1.[Cl-]`: the IC50 in experiment [1], in experiment [3], in [4] and in [9] was above 10 µM each time. Moreover, the entries for the “growth inhibition (GI)” value in [2], in [7] and in experiment [8] were 2.27%, -3.7% and -0.12%, respectively.
Regarding `COc1ccc(Cc2c3[n+](cc4c5c(ccc24)OCO5)CCc2cc4c(cc2-3)OCO4)cc1.[Cl-]`, the IC50 in experiment [1], in [3], in experiment [4] and in [9] was above 10 µM in each case. Moreover, the “growth inhibition (GI)” value in experiment [2] worked out at 11.53%; in experiment [7], 10.21%; in experiment [8], 5.99%.
Consider `Cc1ccc(Cc2c3[n+](cc4c5c(ccc24)OCO5)CCc2cc4c(cc2-3)OCO4)cc1.[Cl-]`, for which the IC50 in experiment [1], in [3], in [4] and in experiment [9] was above 10 µM each time. Moreover, the “growth inhibition (GI)” value was found to be 26.58% in experiment [2], 15.16% in experiment [7] and 12.33% in experiment [8].
On to `[Cl-].c1ccc2cc(Cc3c4[n+](cc5c6c(ccc35)OCO6)CCc3cc5c(cc3-4)OCO5)ccc2c1`, for which the IC50 in experiment [1], in [3], in experiment [4] and in [9] was above 10 µM in each case. The “growth inhibition (GI)” value in experiment [2] is 32.22%; in experiment [7] it was 8.33%; in experiment [8] it was 11.78%.
Regarding `CCOC(=O)c1c2[n+](cc3c4c(ccc13)OCO4)CCc1cc3c(cc1-2)OCO3.[Cl-]`, the IC50 in experiment [1], in experiment [3], in experiment [4] and in experiment [9] was above 10 µM throughout. The entries for the “growth inhibition (GI)” value in experiment [2], in experiment [7] and in [8] were 9.7%, 4% and 4.05%, respectively.
As for `CCOC(=O)Cc1c2[n+](cc3c4c(ccc13)OCO4)CCc1cc3c(cc1-2)OCO3.[Cl-]`, the IC50 in experiment [1], in experiment [3], in [4] and in experiment [9] was above 10 µM in each case. Moreover, the results for the “growth inhibition (GI)” value in experiment [2], in experiment [7] and in experiment [8] were 1.25%, -9.3% and 8.43%, respectively.
On to `[Cl-].c1c2c(cc3c1OCO3)-c1cc3ccc4c(c3c[n+]1CC2)OCO4` [COPTISINE CHLORIDE], for which the concentration for half-maximal inhibition (IC50) in [1] was 5.59 µM; in experiment [3] it was above 14.1 µM; in [4] it was above 14.1 µM; in experiment [6] it was above 14.1 µM. Further, the “growth inhibition (GI)” value in experiment [2] is 49.91%; in experiment [5], -10.71%; in experiment [7], 62.06%; in experiment [8], 12.24%.
For the compound `O=c1[nH]cc(F)c(=O)[nH]1` [FLUOROURACIL], the 50% inhibitory concentration (IC50) in experiment [1] is 3.54 µM; in experiment [3], 2.23 µM; in experiment [4], 6.69 µM; in experiment [6] it was 4.61 µM. Also, the “growth inhibition (GI)” value stood at 72.25% in [2], 56.06% in experiment [5], 80.36% in [7] and 78.43% in [8].
